Patent US12048764B2, “Levodopa infusion solution” (DIZLIN PHARMACEUTICALS AB, priority 2017, dated 2024)

Assays:
[1] = cited from earlier work
[2] = Preliminary patient trial: s.c./i.v. infusion versus intestinal Duodopa, plasma levodopa and carbidopa; type: in vivo, patients with Parkinson's disease
Text: The trial results are from 3 randomly selected patients of a larger study, and for each patient subcutaneous, intravenous injection and intestinal administration was compared.
The study was a prospective, randomized, 3-period cross-over, open-label multicentre trial comparing intravenous and subcutaneous infusion of the preferred aqueous pharmaceutical solution with intestinal Duodopa (LCIG) performed according to the principles of Good Clinical Practice (GCP). The trial included patients with Parkinson's disease who are on Duodopa treatment because of severe on-off manifestation when on oral levodopa. During one treatment visit, patients receive Duodopa at optimal dosage for 16 hours, during another treatment visit, the patients received an i.v. infusion of the preferred aqueous pharmaceutical solution at a concentration estimated to yield corresponding serum levels of levodopa for the same duration, and at a third treatment visit the patients received the corresponding amount of levodopa but in the form of s.c. infusion. Blood samples were drawn according to a set schedule during the treatment visits for up to 24 h. […]
Levodopa and carbidopa in patient's plasma was analysed by ultra-performance liquid chromatography-tandem mass spectrometry (UPLC-MS/MS) according to the principles of Good Laboratory Practice (GLP).

## N[C@@H](Cc1ccc(O)c(O)c1)C(=O)O [levodopa]
[1]; pH values acceptable for continuous parenteral administration
  concentration above which levodopa precipitates: 500 to 1000 µg/mL
[1]; pH<3 or pH>9
  levodopa concentration obtainable: exceeding 5 mg/ml
[2]; patient no 101, severe PD
  levodopa concentration in the blood required for therapeutic effect: 5,000-6,000 ng/mL
[2]; patient no 103, moderate or mild PD
  levodopa concentration in the blood required for therapeutic effect: 1,600-1,700 ng/mL
